Test system: red blood cells
Assay: Red blood cell haemolysis assay
Type: cell-based
Excerpt: In order to determine the relative toxicity or irritancy levels of various toothpastes and mouthwashes, a red blood cell heamolysis assay was employed to obtain information on the effects of these substances on cell membrane integrity. The Red Blood Cell assay provides a simple test system that uses easily obtainable cells and is characterized by defined and objective endpoints. […] Haemoglobin release is a useful endpoint of cell membrane integrity. It is therefore highly suitable as a screening assay in a first-order in vitro test battery for the assessment of potential toxicity to tissue, including tissues of the oral cavity.
To assess the membranolytic activity of test materials. The test materials are incubated with isolated red blood cells. The degree of damage to the red blood cell membrane is quantified by spectro-photometric measurement of released haemoglobin.
Red blood cells are isolated concentrations of the test materials defined from results of a range finding study; released is measured at 541 nm and the concentration resulting in 50% hemolysis (relative to a totally lysed sample) calculated. […]
(b) After the final centrifugation, the packed cell volume is diluted with phosphate buffered saline (PBS) to give an approximate 2% erythrocyte suspension. […] The exact volume of PBS required for a 2% suspension is calculated from the optical density and adjusted accordingly. […]

## CCCCCCCCCCCCCCCC[n+]1ccccc1 [CPC, Cetylpyridinium Chloride]
0.05% CPC
  % Hemolysis (Individual Components): 92.36%

## CC(=O)C1C(=O)C=C(C)OC1=O (centres unmarked) [DHA, dehydroacetic acid]
0.10% DHA
  % Hemolysis (Individual Components): 3.24%

From patent US7128898B2, “Method of minimizing cell lysis and toothpaste and mouthwash with reduced irritancy” (priority 1999, dated 2006)
